Laboratory results taken from ChEMBL document CHEMBL3751794, “α-Aryl pyrrolidine sulfonamides as TRPA1 antagonists” (Bioorg Med Chem Lett, 2016).
pIC50: −log10 of the molar value.

Columns and labels:
[1] = Lipophilicity, log D of compound at pH 7.4; assay type: physicochemical; details: buffer
[2] = target: Transient receptor potential cation channel subfamily A member 1 (Homo sapiens, UniProt O75762); experiment: Inhibition of human TRPA1
[3] = target: Transient receptor potential cation channel subfamily A member 1 (Rattus norvegicus, UniProt Q6RI86); experiment: Inhibition of rat TRPA1
[4] = Permeability across MDCK cells; assay type: ADME, cell-based, Canis lupus familiaris; details: dog, read-out: permeability
[5] = Plasma protein binding in human; assay type: ADME, cell-free; details: read-out: PPB (converted)
[6] = Kinetic solubility of compound; assay type: physicochemical; details: read-out: Kinetic_solubility

Transient receptor potential cation channel subfamily A member 1 (Homo sapiens, UniProt O75762), sequence (O75762 whole entry): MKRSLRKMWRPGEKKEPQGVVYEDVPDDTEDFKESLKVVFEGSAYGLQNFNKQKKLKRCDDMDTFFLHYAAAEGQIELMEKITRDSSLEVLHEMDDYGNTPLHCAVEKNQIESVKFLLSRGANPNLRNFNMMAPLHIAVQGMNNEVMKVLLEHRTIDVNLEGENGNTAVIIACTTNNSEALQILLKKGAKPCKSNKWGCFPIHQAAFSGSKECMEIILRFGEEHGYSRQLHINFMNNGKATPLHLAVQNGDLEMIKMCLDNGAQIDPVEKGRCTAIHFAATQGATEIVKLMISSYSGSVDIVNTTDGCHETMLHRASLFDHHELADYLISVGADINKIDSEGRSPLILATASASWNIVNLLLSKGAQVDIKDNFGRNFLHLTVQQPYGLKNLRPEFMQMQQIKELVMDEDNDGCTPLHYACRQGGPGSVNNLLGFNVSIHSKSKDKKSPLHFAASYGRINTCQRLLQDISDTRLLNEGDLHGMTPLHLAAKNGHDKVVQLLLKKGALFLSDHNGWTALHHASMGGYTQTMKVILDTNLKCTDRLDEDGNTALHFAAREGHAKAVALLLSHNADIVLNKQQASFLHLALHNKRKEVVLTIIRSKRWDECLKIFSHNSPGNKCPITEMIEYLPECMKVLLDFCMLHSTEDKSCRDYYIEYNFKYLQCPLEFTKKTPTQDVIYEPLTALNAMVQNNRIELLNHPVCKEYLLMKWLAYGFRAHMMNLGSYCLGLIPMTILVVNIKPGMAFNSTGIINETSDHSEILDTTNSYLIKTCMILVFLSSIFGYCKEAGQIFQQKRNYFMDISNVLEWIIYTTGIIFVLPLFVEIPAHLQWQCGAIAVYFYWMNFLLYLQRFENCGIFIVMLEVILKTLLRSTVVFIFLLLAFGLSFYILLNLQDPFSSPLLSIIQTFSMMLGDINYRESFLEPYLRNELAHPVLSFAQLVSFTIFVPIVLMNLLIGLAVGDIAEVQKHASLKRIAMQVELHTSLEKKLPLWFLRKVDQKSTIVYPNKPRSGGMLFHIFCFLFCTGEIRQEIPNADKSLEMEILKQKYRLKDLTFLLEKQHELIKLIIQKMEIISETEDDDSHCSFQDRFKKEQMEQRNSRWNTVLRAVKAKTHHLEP
Transient receptor potential cation channel subfamily A member 1 (Rattus norvegicus, UniProt Q6RI86), sequence (Q6RI86 whole entry): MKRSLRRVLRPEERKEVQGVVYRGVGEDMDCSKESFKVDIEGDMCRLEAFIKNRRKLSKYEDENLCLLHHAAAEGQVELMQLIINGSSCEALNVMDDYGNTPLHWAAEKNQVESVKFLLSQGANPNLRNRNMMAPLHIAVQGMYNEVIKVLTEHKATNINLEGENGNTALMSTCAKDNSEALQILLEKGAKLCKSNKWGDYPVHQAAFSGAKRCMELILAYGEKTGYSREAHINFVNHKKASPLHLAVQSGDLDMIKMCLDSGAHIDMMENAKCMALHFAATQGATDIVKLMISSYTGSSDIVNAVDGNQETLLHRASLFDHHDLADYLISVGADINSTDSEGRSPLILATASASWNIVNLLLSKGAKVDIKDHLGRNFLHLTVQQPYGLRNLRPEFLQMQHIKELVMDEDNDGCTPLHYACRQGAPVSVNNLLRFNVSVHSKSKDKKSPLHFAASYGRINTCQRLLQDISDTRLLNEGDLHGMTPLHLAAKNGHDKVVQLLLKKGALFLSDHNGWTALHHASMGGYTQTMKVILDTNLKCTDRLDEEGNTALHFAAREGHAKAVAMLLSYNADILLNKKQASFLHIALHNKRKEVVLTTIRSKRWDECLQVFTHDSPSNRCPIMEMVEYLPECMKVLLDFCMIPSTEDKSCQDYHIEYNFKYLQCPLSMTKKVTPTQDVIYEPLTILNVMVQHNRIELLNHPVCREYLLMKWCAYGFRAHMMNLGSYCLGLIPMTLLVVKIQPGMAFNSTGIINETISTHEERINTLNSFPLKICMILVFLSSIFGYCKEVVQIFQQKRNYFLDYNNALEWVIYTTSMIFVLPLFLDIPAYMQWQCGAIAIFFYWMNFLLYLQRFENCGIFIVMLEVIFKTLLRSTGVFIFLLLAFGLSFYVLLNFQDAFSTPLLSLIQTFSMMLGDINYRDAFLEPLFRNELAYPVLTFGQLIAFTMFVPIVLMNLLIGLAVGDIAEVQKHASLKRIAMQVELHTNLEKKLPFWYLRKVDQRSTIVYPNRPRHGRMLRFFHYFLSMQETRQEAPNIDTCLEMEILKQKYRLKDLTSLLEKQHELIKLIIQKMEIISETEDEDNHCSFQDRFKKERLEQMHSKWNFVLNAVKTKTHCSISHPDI

| logD [1] | pIC50 [2] | pIC50 [3] | Papp [4] | fraction unbound [5] | solubility kinetic [6] | Compound |
| --- | --- | --- | --- | --- | --- | --- |
| 3.9 | 6.57 |  |  |  |  | COC[C@@H]1CC[C@H](c2ccc(F)cc2)N1S(=O)(=O)c1cc(C)c(F)c(C)c1 |
| 2.6 | 6.42 |  |  |  |  | Cc1cc(S(=O)(=O)N2C[C@H](F)C[C@@H]2c2ccc(F)cc2)cc(C)c1F |
| 2.7 | < 4.70 |  |  |  |  | CNC[C@@H]1CC[C@H](c2ccc(F)cc2)N1S(=O)(=O)c1cc(C)c(F)c(C)c1 |
| 3.3 | 7.20 |  |  |  |  | Cc1cc(S(=O)(=O)N2[C@H](CO)CC[C@@H]2c2ccc(F)cc2)cc(C)c1F |
| 4.2 | 7.64 |  |  |  |  | Cc1cc(S(=O)(=O)N2CC(F)(F)C[C@@H]2c2ccc(F)cc2)cc(C)c1F |
| 4.4 | 6.96 |  |  |  |  | Cc1cc(S(=O)(=O)N2CCC[C@@H]2c2ccc(F)cc2)cc(C)c1F |
| 3.9 | 7.70 |  |  |  |  | Cc1cc(S(=O)(=O)N2CC[C@@H](F)[C@@H]2c2ccc(F)cc2)cc(C)c1F |
| 3.7 | < 4.74 |  |  |  |  | Cc1cc(S(=O)(=O)N2[C@H](CN(C)C)CC[C@@H]2c2ccc(F)cc2)cc(C)c1F |

Continued, compound first:

| Compound | logD [1] | pIC50 [2] | pIC50 [3] | Papp [4] | fraction unbound [5] | solubility kinetic [6] |
| --- | --- | --- | --- | --- | --- | --- |
| Cc1cc(S(=O)(=O)N2[C@H](CO)CC[C@@H]2c2ccc(F)cc2)ccc1F | 2.8 | 6.72 |  |  |  |  |
| Cc1cc(CN2[C@H](CO)CC[C@@H]2c2ccc(F)cc2)cc(C)c1F | 4 | 5.17 |  |  |  |  |
| Cc1cc(S(=O)(=O)N2[C@H](CNCC(F)(F)F)CC[C@@H]2c2ccc(F)cc2)cc(C)c1F | 4.3 | < 4.70 |  |  |  |  |
| O=S(=O)(c1cc(Cl)c(F)c(Cl)c1)N1[C@H](CO)CC[C@@H]1c1ccc(F)cc1 | 3.8 | 6.96 | 5.14 | 5.7 ×10⁻⁶ cm/s | 0.006 | < 1 µM |
| Cc1cc(C(=O)N2[C@H](CO)CC[C@@H]2c2ccc(F)cc2)cc(C)c1F | 3.1 | < 4.70 |  |  |  |  |
| O=S(=O)(c1cccnc1)N1[C@H](CO)CC[C@@H]1c1ccc(F)cc1 | 1.1 | < 4.70 |  |  |  |  |
| O=S(=O)(c1cc(Cl)c(F)c(Cl)c1)N1CCC[C@@H]1c1ccc(F)cc1 | 4.6 | 6.46 |  |  |  |  |
| Cc1cc(S(=O)(=O)N2[C@H](CO)CC[C@@H]2c2ccc(F)cc2)cc(Cl)c1F | 3.6 | 6.89 |  |  |  |  |
| O=S(=O)(c1ccc(F)cn1)N1[C@H](CO)CC[C@@H]1c1ccc(F)cc1 | 2 | < 4.70 |  |  |  |  |
| Cc1cc(C)cc(S(=O)(=O)N2[C@H](CO)CC[C@@H]2c2ccc(F)cc2)c1 | 3.2 | 6.54 |  |  |  |  |
| O=S(=O)(c1ccccc1)N1[C@H](CO)CC[C@@H]1c1ccc(F)cc1 | 2.2 | < 4.72 |  |  |  |  |
| O=S(=O)(c1ccc(F)cc1)N1CCC[C@@H]1c1ccc(F)cc1 | 3.2 | 5.18 |  |  |  |  |
